Laboratory results: patent publication US10092599B2, “Methods for enhancing hematopoietic stem/progenitor cell engraftment” (CHILDREN'S MEDICAL CENTER CORPORATION, priority 2009, dated 2018)

Tested on: hematopoietic stem/progenitor cell engraftment
Assay: adult zebrafish whole kidney marrow competitive transplantation assay
Format: in vivo
Conditions: for engraftment signal in pilot screen of 10 bioactive compounds: by four weeks post-transplant, 10 recipients per treatment; for average G/R / percentage of positive recipients: green marrow incubated in vitro 4 hrs, mixed with red marrow 1:4, 4 wpt, compared with DMSO control; for engraftment: by 4 weeks post transplant
Excerpt: A transparent adult zebrafish, casper, was used as a transplantation recipient. Casper is a double homozygous pigment mutant for the nacre allele (devoid of melanocytes) and the roy allele (devoid of iridophores and reduced melanoyctyes), which allows direct visualization of GFP labeled hematopoietic stem cell homing and engraftment without killing the recipients. Two marrows are used: Tg(β-actin:GFP) and Red GloFish® respectively to compete with each other at varying ratios e.g., 1:4, which can generate robust competition between the two donors. In one embodiment, the red marrow is the competitor, as well as an internal control for the transplant. At different timepoints post-transplant, the recipients are anesthetized and two pictures for each recipient are taken by a fluorescence stereomicroscope with GFP/DsRed filters individually. Images are analyzed by software, such as ImageJ, which can quantify the GFP/DsRed fluorescence intensity. The relative engraftment efficiency of the manipulated green marrow is measured by the ratio of the GFP intensity over the DsRed intensity within the same kidney region after background subtraction (labeled as G/R).
A double-color labeled competitive transplantation assay was developed, as shown by the flow chart in FIG. 1A. GFP+ and DsRed2+ marrow cells are isolated from Tg(β-actin:GFP) and commercially available Red GloFish®. The two donor populations are mixed at a certain ratio and injected into sublethally irradiated casper recipients retro-orbitally. The DsRed2+ marrow is used as the competitor. Four weeks later, the engraftment is visualized by fluorescence dissection scope. Pictures of GFP and DsRed engraftment are taken for each recipient and analyzed by ImageJ. The kidney region is manually selected and the average fluorescence intensities of both green and red are measured within the same region. The average background intensity is measured in a region outside the fish, and subtracted from the kidney intensity. The calculation of the relative engraftment is shown by the equation in FIG. 1B.
Adult zebrafish donors are anaesthetized with 0.2% tricaine before blood and kidney collection. Peripheral blood is obtained from adult casper by cardiac puncture with micropipette tips coated with heparin and collected into 0.9×PBS containing 5% FCS. About 3-5 million red blood cells are harvested from one donor. To dissect whole kidney marrow (WKM), a ventral midline incision is made on the donor fish. Whole kidney is dissected out and placed into ice-cold 0.9×PBS containing 5% FCS. Single-cell suspensions are generated by aspiration followed by filtering through a […] nylon mesh filter into a 50 ml conical tube. The flow-though part is diluted with a final volume of 25 ml and centrifuged at 1,500 rpm for 8 minutes. The supernatant is discarded and the pellet cells are resuspended in 1 ml 0.9×PBS containing 5% FCS. The number of viable cells are counted with a hemocytometer. […] Finally, the peripheral blood and kidney marrow cells are centrifuged at 1,500 rpm for 8 minutes, resuspended in 0.9×PBS containing 5% FCS and mixed at a certain ratio and concentration. Casper recipients are anesthetized in tricaine. 4 μl of the cell suspension mixture described above is injected into the circulation retro-orbitally through a Hamilton syringe (26s gauge, 10 μl volume). […] Transplanted recipients can be anesthetized in tricaine and visualized over time on a Zeiss Discovery V8 stereomicroscope with a 1.2× PlanApo lens and GFP/DsRed filters. Images are captured using AxioVision software and for each recipient, two images are taken with GFP or DsRed filter respectively. The images are all saved in .tif format and analyzed using ImageJ software.

SMILES | score in the competitive transplant model (at 3 months) | score in the competitive transplant model (at 4 weeks) | engraftment signal in pilot screen of 10 bioactive compounds | average G/R | percentage of positive recipients | engraftment (green marrow incubated in vitro with 0.5 μM at room temperature for 2-4 hours) | engraftment (green marrow incubated in vitro with 10 μM at room temperature for 2-4 hours)
O=C1Nc2cc(Br)ccc2C1=C1Nc2ccccc2C1=NO [BIO, 6-bromorindirubin-3′-oxime] | positive | positive | enhanced signal above the rest of the chemicals tested | significantly increased | significantly increased | increase engraftment | –
CCCCC(C)(C)[C@H](O)/C=C/[C@H]1[C@H](O)CC(=O)[C@@H]1C/C=C\CCCC(=O)O [dmPGE2, 16-,16-dimethyl Prostaglandin E2] | positive | positive | enhanced signal above the rest of the chemicals tested | significantly increased | significantly increased | – | increase engraftment
